PubChem BioAssay AID1963435 (Molecular Pharmacology Branch, DTP, NCI, 2024)
“And” between values parts separate entries of the source, which are not always exact repeats. Equal values may be shown once.

Tested on: PANC-1 complex spheroid growth, percent test/control
Assay: Anticancer human tumor PANC-1 cell line growth inhibition [Asc];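 note: spheroids exposed to agents for 7 days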;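 for viability, T/C: percent viability relative to DMSO vehicle wells taken as 100%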
Conditions: for viability, T/C: stronger effect = lower value; active = viability on the fitted dose curve at most 10% of control; inactive = the rest
Procedure, shortened: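 Complex solid-tumor spheroids incorporating human endothelial and mesenchymal stem cells received single agents or combinations over half-log dilution ranges anchored to clinical Cmax.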

[1] = curve of first compound, second compound 0.00949 µM
[2] = curve of first compound, second compound 0.03 µM
[3] = curve of first compound, second compound 0.0949 µM
[4] = curve of first compound, second compound 0.3 µM
[5] = curve of first compound, second compound 0.949 µM
[6] = curve of first compound, second compound 3 µM
[7] = second compound 0.00949 µM, first compound 0.00316 µM
[8] = second compound 0.00949 µM, first compound 0.01 µM
[9] = second compound 0.00949 µM, first compound 0.0316 µM
[10] = second compound 0.00949 µM, first compound 0.1 µM
[11] = second compound 0.00949 µM, first compound 0.316 µM
[12] = second compound 0.00949 µM, first compound 1 µM
[13] = second compound 0.03 µM, first compound 0.00316 µM
[14] = second compound 0.03 µM, first compound 0.01 µM
[15] = second compound 0.03 µM, first compound 0.0316 µM
[16] = second compound 0.03 µM, first compound 0.1 µM
[17] = second compound 0.03 µM, first compound 0.316 µM
[18] = second compound 0.03 µM, first compound 1 µM
[19] = second compound 0.0949 µM, first compound 0.00316 µM
[20] = second compound 0.0949 µM, first compound 0.01 µM
[21] = second compound 0.0949 µM, first compound 0.0316 µM
[22] = second compound 0.0949 µM, first compound 0.1 µM
[23] = second compound 0.0949 µM, first compound 0.316 µM
[24] = second compound 0.0949 µM, first compound 1 µM
[25] = second compound 0.3 µM, first compound 0.00316 µM
[26] = second compound 0.3 µM, first compound 0.01 µM
[27] = second compound 0.3 µM, first compound 0.0316 µM
[28] = second compound 0.3 µM, first compound 0.1 µM
[29] = second compound 0.3 µM, first compound 0.316 µM
[30] = second compound 0.3 µM, first compound 1 µM
[31] = second compound 0.949 µM, first compound 0.00316 µM
[32] = second compound 0.949 µM, first compound 0.01 µM
[33] = second compound 0.949 µM, first compound 0.0316 µM
[34] = second compound 0.949 µM, first compound 0.1 µM
[35] = second compound 0.949 µM, first compound 0.316 µM
[36] = second compound 0.949 µM, first compound 1 µM
[37] = second compound 3 µM, first compound 0.00316 µM
[38] = second compound 3 µM, first compound 0.01 µM
[39] = second compound 3 µM, first compound 0.0316 µM
[40] = second compound 3 µM, first compound 0.1 µM
[41] = second compound 3 µM, first compound 0.316 µM
[42] = second compound 3 µM, first compound 1 µM

CNC(C)C(=O)NC1CN(S(=O)(=O)c2cccc(S(=O)(=O)N3CCC4CCC(C(=O)NC(c5ccccc5)c5ccccc5)N4C(=O)C(NC(=O)C(C)NC)C3)c2)CCC2CCC(C(=O)NC(c3ccccc3)c3ccccc3)N2C1=O (stereo not given) + CCN1C(C(=O)NC23CCC(C(=O)O)(CC2)CC3)C(c2cccc(Cl)c2F)C2(C(=O)Nc3cc(Cl)ccc32)C12CCCCC2
> 1000 nM: IC50 [1] | IC50 [2] | IC50 [3] | IC50 [4] | IC50 [5] | IC50 [6]
inactive: viability, T/C [7] 104% | viability, T/C [8] 96.6% | viability, T/C [9] 103% | viability, T/C [10] 89.4% | viability, T/C [11] 97% | viability, T/C [12] 86.5% | viability, T/C [13] 103% | viability, T/C [14] 93.9% | viability, T/C [15] 90.9% | viability, T/C [16] 93.8% | viability, T/C [17] 97.2% | viability, T/C [18] 85.4% | viability, T/C [19] 90.3% | viability, T/C [20] 96.9% | viability, T/C [21] 89.4% | viability, T/C [22] 91.2% | viability, T/C [23] 92.2% | viability, T/C [24] 86.8% | viability, T/C [25] 114% | viability, T/C [26] 94.1% | viability, T/C [27] 90.7% | viability, T/C [28] 101% | viability, T/C [29] 91.3% | viability, T/C [30] 90.6% | viability, T/C [31] 106% | viability, T/C [32] 100% | viability, T/C [33] 106% | viability, T/C [34] 97.8% | viability, T/C [35] 100% | viability, T/C [36] 93.2% | viability, T/C [37] 113% | viability, T/C [38] 111% | viability, T/C [39] 108% | viability, T/C [40] 103% | viability, T/C [41] 109% | viability, T/C [42] 89.1%

O=C(c1cc(Cc2n[nH]c(=O)c3ccccc23)ccc1F)N1CCN(C(=O)C2CC2)CC1 + CNC(C)C(=O)NC1CN(S(=O)(=O)c2cccc(S(=O)(=O)N3CCC4CCC(C(=O)NC(c5ccccc5)c5ccccc5)N4C(=O)C(NC(=O)C(C)NC)C3)c2)CCC2CCC(C(=O)NC(c3ccccc3)c3ccccc3)N2C1=O
inactive: viability, T/C (second compound 0.00316 µM, first compound 0.0316 µM) 132% | viability, T/C (second compound 0.00316 µM, first compound 0.1 µM) 111% | viability, T/C (second compound 0.00316 µM, first compound 0.316 µM) 134% | viability, T/C (second compound 0.00316 µM, first compound 1 µM) 133% | viability, T/C (second compound 0.00316 µM, first compound 3.16 µM) 97.3% | viability, T/C (second compound 0.00316 µM, first compound 10 µM) 63.4% | viability, T/C (second compound 0.01 µM, first compound 0.0316 µM) 109% | viability, T/C (second compound 0.01 µM, first compound 0.1 µM) 100% | viability, T/C (second compound 0.01 µM, first compound 0.316 µM) 105% | viability, T/C (second compound 0.01 µM, first compound 1 µM) 104% | viability, T/C (second compound 0.01 µM, first compound 3.16 µM) 103% | viability, T/C (second compound 0.01 µM, first compound 10 µM) 98.4% | viability, T/C (second compound 0.0316 µM, first compound 0.0316 µM) 107% | viability, T/C (second compound 0.0316 µM, first compound 0.1 µM) 96.2% | viability, T/C (second compound 0.0316 µM, first compound 0.316 µM) 96.7% | viability, T/C (second compound 0.0316 µM, first compound 1 µM) 110% | viability, T/C (second compound 0.0316 µM, first compound 3.16 µM) 112% | viability, T/C (second compound 0.0316 µM, first compound 10 µM) 91.2% | viability, T/C (second compound 0.1 µM, first compound 0.0316 µM) 91.2% | viability, T/C (second compound 0.1 µM, first compound 0.1 µM) 100% | viability, T/C (second compound 0.1 µM, first compound 0.316 µM) 92.3% | viability, T/C (second compound 0.1 µM, first compound 1 µM) 99.1% | viability, T/C (second compound 0.1 µM, first compound 3.16 µM) 101% | viability, T/C (second compound 0.1 µM, first compound 10 µM) 81.8% | viability, T/C (second compound 0.316 µM, first compound 0.0316 µM) 103% | viability, T/C (second compound 0.316 µM, first compound 0.1 µM) 103% | viability, T/C (second compound 0.316 µM, first compound 0.316 µM) 89.2% | viability, T/C (second compound 0.316 µM, first compound 1 µM) 95.4% | viability, T/C (second compound 0.316 µM, first compound 3.16 µM) 99.2% | viability, T/C (second compound 0.316 µM, first compound 10 µM) 93.3% | viability, T/C (second compound 1 µM, first compound 0.0316 µM) 93.7% | viability, T/C (second compound 1 µM, first compound 0.1 µM) 106% | viability, T/C (second compound 1 µM, first compound 0.316 µM) 87.8% | viability, T/C (second compound 1 µM, first compound 1 µM) 93.2% | viability, T/C (second compound 1 µM, first compound 3.16 µM) 89.9% | viability, T/C (second compound 1 µM, first compound 10 µM) 85.2%
> 10000 nM: IC50 (curve of first compound, second compound 0.00316 µM) | IC50 (curve of first compound, second compound 0.01 µM) | IC50 (curve of first compound, second compound 0.0316 µM) | IC50 (curve of first compound, second compound 0.1 µM) | IC50 (curve of first compound, second compound 0.316 µM) | IC50 (curve of first compound, second compound 1 µM)

COc1c(OCCCN2CCOCC2)ccc2c3n(c(=NC(=O)c4cnc(N)nc4)nc12)CCN3 + CCN1C(C(=O)NC23CCC(C(=O)O)(CC2)CC3)C(c2cccc(Cl)c2F)C2(C(=O)Nc3cc(Cl)ccc32)C12CCCCC2
284 nM: IC50 [6]
279 nM: IC50 [5]
315 nM: IC50 [1]
inactive: viability, T/C [7] 87.6% | viability, T/C [8] 96.3% | viability, T/C [9] 101% | viability, T/C [10] 85.2% | viability, T/C [11] 50.2% | viability, T/C [12] 30.3% | viability, T/C [13] 91.7% | viability, T/C [14] 91.1% | viability, T/C [15] 97.2% | viability, T/C [16] 76.7% | viability, T/C [17] 56% | viability, T/C [18] 35.8% | viability, T/C [19] 94.9% | viability, T/C [20] 101% | viability, T/C [21] 92.5% | viability, T/C [22] 70.5% | viability, T/C [23] 47.9% | viability, T/C [24] 31.2% | viability, T/C [25] 110% | viability, T/C [26] 106% | viability, T/C [27] 95.2% | viability, T/C [28] 77.1% | viability, T/C [29] 47.5% | viability, T/C [30] 35.8% | viability, T/C [31] 108% | viability, T/C [32] 96.7% | viability, T/C [33] 95.6% | viability, T/C [34] 75.3% | viability, T/C [35] 45.9% | viability, T/C [36] 34.5% | viability, T/C [37] 118% | viability, T/C [38] 109% | viability, T/C [39] 92% | viability, T/C [40] 79.3% | viability, T/C [41] 42.2% | viability, T/C [42] 32.5%
267 nM: IC50 [3]
423 nM: IC50 [2]
306 nM: IC50 [4]

C#Cc1c(F)ccc2cc(O)cc(-c3ncc4c(N5CC6CCC(C5)N6)nc(OCC56CCCN5CC(F)C6)nc4c3F)c12 (stereo not given)
> 10000 nM: IC50 (curve of compound)
inactive: viability, T/C (compound 0.0316 µM) 105% and 87.8% and 92.5% | viability, T/C (compound 0.1 µM) 80% and 75.7% and 88.9% | viability, T/C (compound 0.316 µM) 93.9% and 85.8% and 83.5% | viability, T/C (compound 1 µM) 79.9% and 80.1% and 84% | viability, T/C (compound 3.16 µM) 86.8% and 83.7% and 86.3% | viability, T/C (compound 10 µM) 85.4% and 84.5% and 92.1%

Cn1ncnc1[C@H]1c2n[nH]c(=O)c3cc(F)cc(c23)N[C@@H]1c1ccc(F)cc1
inactive: viability, T/C (compound 0.000316 µM) 97.2% and 109% and 94.1% | viability, T/C (compound 0.001 µM) 104% and 101% and 106% | viability, T/C (compound 0.00316 µM) 99.2% and 110% and 107% | viability, T/C (compound 0.01 µM) 98.5% and 105% and 109% | viability, T/C (compound 0.0316 µM) 109% and 105% and 108% | viability, T/C (compound 0.1 µM) 109% and 105% and 115%
> 100 nM: IC50 (curve of compound)
